Tested on: Drosophila adult flies
Assay: Two-choice preference test of adult flies (BITC)
Assay type: in vivo, Drosophila melanogaster
Conditions: 0.4 mM BITC, 2-day old control flies
Procedure: The two-choice preference test was based on a published procedure with some modifications (Al-Anzi et al., 2006), which is hereby incorporated by reference herein in its entirety. 2-day-old males withheld from food for 24 hr were presented with a 48-well plate containing two-colored food media in the alternating well rows. They contain 1% agar/10% fructose with 0.4 mM benzyl-isothiocyanate (BITC) in 75% ethanol or ethanol only. In each assay, 90-100 flies per line were tested in the dark. A preference index was defined as the fraction of […] choosing the BITC medium, minus the fraction of […] choosing the BITC-free medium. […] At least three trials were done for each line.

Question: `S=C=NCc1ccccc1` [BITC, benzyl-isothiocyanate] was tested. Which “food choice of adult flies” value did it give?
Answer: Its value is “mostly avoided”.
